From ChEMBL document CHEMBL2073828, “The breast cancer resistance protein (Bcrp1/Abcg2) restricts exposure to the dietary carcinogen 2-amino-1-methyl-6-phenylimidazo[4,5-b]pyridine” (Cancer Res, 2003)

Experiments:
[1] = molecular target: T1, Broad substrate specificity ATP-binding cassette transporter ABCG2 (Mus musculus, UniProt Q7TMS5); assay: TP_TRANSPORTER: transcellular transport in MDCKII; format: functional, cell-based; details: dog, mdck-ii
T1 sequence (Q7TMS5 whole entry): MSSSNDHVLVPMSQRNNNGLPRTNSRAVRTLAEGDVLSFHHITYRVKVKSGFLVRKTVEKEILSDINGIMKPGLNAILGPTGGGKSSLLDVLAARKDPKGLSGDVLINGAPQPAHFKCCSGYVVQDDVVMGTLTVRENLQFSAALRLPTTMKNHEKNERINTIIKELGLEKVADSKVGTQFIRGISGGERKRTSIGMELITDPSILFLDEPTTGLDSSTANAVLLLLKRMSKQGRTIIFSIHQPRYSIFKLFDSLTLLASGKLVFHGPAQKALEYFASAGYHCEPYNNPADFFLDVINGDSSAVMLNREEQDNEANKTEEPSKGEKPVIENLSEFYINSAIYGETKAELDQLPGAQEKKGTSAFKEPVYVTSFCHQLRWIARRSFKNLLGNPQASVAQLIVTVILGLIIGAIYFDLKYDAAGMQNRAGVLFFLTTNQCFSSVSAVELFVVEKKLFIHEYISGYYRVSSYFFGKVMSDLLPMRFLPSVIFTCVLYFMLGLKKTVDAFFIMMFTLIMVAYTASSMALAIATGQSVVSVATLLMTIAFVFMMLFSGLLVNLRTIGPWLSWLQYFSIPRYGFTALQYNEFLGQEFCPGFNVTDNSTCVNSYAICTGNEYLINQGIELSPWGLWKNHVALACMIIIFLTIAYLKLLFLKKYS

[2] = molecular target: T1, Broad substrate specificity ATP-binding cassette transporter ABCG2; assay: TP_TRANSPORTER: intestinal excretion; format: functional, organism-based; details: in vivo
[3] = molecular target: T1, Broad substrate specificity ATP-binding cassette transporter ABCG2; assay: TP_TRANSPORTER: biliary excretion; format: functional, organism-based, Bile; details: in vivo

Measured: Activity

Cn1c(N)nc2ncc(-c3ccccc3)cc21 [2-AMINO-1-METHYL-6- PHENYLIMIDAZO[4,5- B]PYRIDINE]
substrate []: [1] | [2] | [3]
